Measured values published in the supplement of paper PMC8671470.

Columns and labels:
Conditions in all cases: 72 h
HL-60 [1] = assay: area under dose-response curve (viability, 1 nM-10 uM) (fraction (0-1)); higher = more sensitive
Summary of the method: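 Four-parameter log-logistic fits in drc and PharmacoGx supplied area under the curve where it is given. Underlying viability came from CellTiter-Glo, normalised to DMSO and proteasome-inhibitor wells, with the proteasome inhibitor at 10 μM. HL-60 cells in RPMI 1640 plus 10% FBS had been rescreened against the full library at five tenfold concentrations of 1–10,000 nM, in duplicate on 384-well plates, with DMSO or 100 nM of one of three metabolic inhibitors, for 72 h at 37 °C, 5% CO2.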

Mono-Mac-6 = tested on: Mono-Mac-6
Summary of the method: (§1)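 Seeded in RPMI 1640 at densities within the linear growth range, fifteen myeloid leukaemia cell lines were dispensed into 384-well plates with acoustically pre-printed compounds spanning five tenfold doses from 1 to 10,000 nM, in duplicate. The plates were kept for 72 h at 37 °C in 5% CO2 before luminescent ATP viability was measured and normalised to vehicle and to a positive control at 10 µM. Curves were fitted with a four-parameter log-logistic model. The IC50 was taken from those curves.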

NOMO-1 = tested on: NOMO-1
Summary of the method: as §1

ML-2 = tested on: ML-2
Summary of the method: as §1

HL-60 [2] = tested on: HL-60
Summary of the method: as §1

KCL-22 = tested on: KCL-22
Summary of the method: as §1

K-562 = tested on: K-562
Summary of the method: as §1

HEL = tested on: HEL
Summary of the method: as §1

SHI-1 = tested on: SHI-1
Summary of the method: as §1

KU-812 = tested on: KU-812
Summary of the method: as §1

KG-1 = tested on: KG-1
Summary of the method: as §1

MOLM-13 = tested on: MOLM-13
Summary of the method: as §1

LAMA-84 = tested on: LAMA-84
Summary of the method: as §1

BV-173 = tested on: BV-173
Summary of the method: as §1

MV4-11 = tested on: MV4-11
Summary of the method: as §1

THP-1 = tested on: THP-1
Summary of the method: as §1

[3] = co-treatment: GSK2194069 100 nM
[4] = co-treatment: pictilisib 100 nM

| SMILES | area under dose-response curve (HL-60 [1]; co-treatment: AZD3965 100 nM) | area under dose-response curve (HL-60 [1]; co-treatment: DMSO vehicle) | area under dose-response curve (HL-60 [1]; [3]) | area under dose-response curve (HL-60 [1]; [4]) | IC50 (cell viability) (Mono-Mac-6) [µM] | IC50 (cell viability) (NOMO-1) [µM] | IC50 (cell viability) (ML-2) [µM] | IC50 (cell viability) (HL-60 [2]) [µM] | IC50 (cell viability) (KCL-22) [µM] | IC50 (cell viability) (K-562) [µM] | IC50 (cell viability) (HEL) [µM] | IC50 (cell viability) (SHI-1) [µM] | IC50 (cell viability) (KU-812) [µM] | IC50 (cell viability) (KG-1) [µM] | IC50 (cell viability) (MOLM-13) [µM] | IC50 (cell viability) (LAMA-84) [µM] | IC50 (cell viability) (BV-173) [µM] | IC50 (cell viability) (MV4-11) [µM] | IC50 (cell viability) (THP-1) [µM] |
| --- | --- | --- | --- | --- | --- | --- | --- | --- | --- | --- | --- | --- | --- | --- | --- | --- | --- | --- | --- |
| O=C(O)CC[C@H](NC(=O)c1ccc([N+](=O)[O-])cc1)C(=O)O [(S)-2-(4-Nitrobenzamido)pentanedioic acid] | < 0.0301 | < 0.0301 | < 0.0301 | < 0.0301 | > 10 | > 10 | > 10 | > 10 | > 10 | > 10 | > 10 | > 10 | > 10 | > 10 | > 10 | > 10 | > 10 | > 10 | > 10 |
| CC(C(=O)O)C(=O)O [Methylmalonate] | – | – | – | – | > 10 | > 10 | > 10 | > 10 | > 10 | > 10 | > 10 | > 10 | > 10 | > 10 | > 10 | > 10 | > 10 | > 10 | > 10 |
| C#Cc1cnc(O)nc1O [Eniluracil] | < 0.0301 | < 0.0301 | < 0.0301 | < 0.0301 | > 10 | > 10 | > 10 | > 10 | > 10 | > 10 | > 10 | > 10 | > 10 | > 10 | > 10 | > 10 | > 10 | > 10 | > 10 |
| O=C(O)c1cc2sccc2[nH]1 [4H-thieno[3,2-b]pyrrole-5-carboxylic acid] | < 0.0301 | < 0.0301 | < 0.0301 | < 0.0301 | > 10 | > 10 | > 10 | > 10 | > 10 | > 10 | > 10 | > 10 | > 10 | > 10 | > 10 | > 10 | > 10 | > 10 | > 10 |
| CC(/C=C1\SC(=S)N(CC(=O)O)C1=O)=C\c1ccccc1 [Epalrestat] | < 0.0301 | < 0.0301 | < 0.0301 | < 0.0301 | > 10 | > 10 | > 10 | > 10 | > 10 | > 10 | > 10 | > 10 | > 10 | > 10 | > 10 | > 10 | > 10 | > 10 | > 10 |
| C1CCc2nnc(C34CC5CC(CC(C5)C3)C4)n2CC1 [MERCK-544] | < 0.0301 | < 0.0301 | < 0.0301 | < 0.0301 | > 10 | > 10 | > 10 | > 10 | > 10 | > 10 | > 10 | > 10 | > 10 | > 10 | > 10 | > 10 | > 10 | > 10 | > 10 |
| CC(C)Cc1sc(N)nc1-c1ccc(P(=O)(O)O)o1 | < 0.0301 | < 0.0301 | < 0.0301 | < 0.0301 | > 10 | > 10 | > 10 | > 10 | > 10 | > 10 | > 10 | > 10 | > 10 | > 10 | > 10 | > 10 | > 10 | > 10 | > 10 |
| COc1cc2c(NC3CCN(C)CC3)nc(N3CCCN(C)CC3)nc2cc1OCCCN(C)C [UNC0224] | – | – | – | – | > 10 | > 10 | > 10 | > 10 | > 10 | > 10 | > 10 | > 10 | > 10 | > 10 | > 10 | > 10 | > 10 | > 10 | > 10 |
| [N-]=[N+]=CC(=O)CC[C@H](N)C(=O)O [6-Diazo-5-oxo-L-norleucine] | < 0.0301 | < 0.0301 | < 0.0301 | < 0.0301 | > 10 | > 10 | > 10 | > 10 | > 10 | > 10 | > 10 | > 10 | > 10 | > 10 | > 10 | > 10 | > 10 | > 10 | > 10 |
| CN(C/C=C/C#CC(C)(C)C)Cc1cccc2ccccc12 [Terbinafine] | – | – | – | – | > 10 | > 10 | > 10 | > 10 | > 10 | > 10 | > 10 | > 10 | > 10 | > 10 | > 10 | > 10 | > 10 | > 10 | > 10 |
| N[C@](CCCCB(O)O)(CCN1CCCCC1)C(=O)O [Arginase inhibitor 1] | 0.0306 | 0.0367 | 0.0592 | – | > 10 | > 10 | > 10 | > 10 | > 10 | > 10 | > 10 | > 10 | > 10 | > 10 | > 10 | > 10 | > 10 | > 10 | > 10 |
| CC(C)C[C@H](NC(=O)[C@@H](O)[C@H](N)Cc1ccccc1)C(=O)O [Ubenimex] | – | – | – | – | > 10 | > 10 | > 10 | > 10 | > 10 | > 10 | > 10 | > 10 | > 10 | > 10 | > 10 | > 10 | > 10 | > 10 | > 10 |
| Clc1ccc(COC(Cn2ccnc2)c2ccc(Cl)cc2Cl)cc1 (stereo unspecified) [Econazole] | – | – | – | – | > 10 | > 10 | 8.94 | 3.64 | 6.71 | 2.39 | > 10 | > 10 | 7.24 | 6.84 | 0.925 | > 10 | 2.28 | 1.08 | > 10 |
| O=P(O)(O)C(O)(Cn1ccnc1)P(=O)(O)O [Zoledronic acid] | – | – | – | – | > 10 | > 10 | > 10 | > 10 | > 10 | > 10 | > 10 | > 10 | > 10 | > 10 | > 10 | > 10 | > 10 | > 10 | > 10 |
| O=C(O)C(S)=Cc1c[nH]c2ccc(F)cc12 | – | – | – | – | > 10 | > 10 | > 10 | > 10 | > 10 | > 10 | > 10 | > 10 | > 10 | > 10 | > 10 | > 10 | > 10 | > 10 | > 10 |
